Two compounds from paper PMC12515225, “Targeting neuroblastoma with hydroxamic acid based HDAC1 and HDAC2 inhibitors: Insights from in vitro and in vivo studies” (Investigational New Drugs, 2025) can be followed below.

The structures appear in SMILES notation.

One experiment addresses HDAC2 (Homo sapiens, UniProt Q92769). Put plainly: fluorogenic HDAC activity assay with HDAC2 protein (BPS […]), Boc-Lys(Ac)-AMC substrate. It is filed as biochemical.
A further experiment addresses HDAC1 (Homo sapiens, UniProt Q13547). The experiment is described as follows: fluorogenic HDAC activity assay with HDAC1 protein (BPS […]), Boc-Lys(Ac)-AMC substrate. It is filed as biochemical.

Sequence of HDAC2 (Q92769 whole entry): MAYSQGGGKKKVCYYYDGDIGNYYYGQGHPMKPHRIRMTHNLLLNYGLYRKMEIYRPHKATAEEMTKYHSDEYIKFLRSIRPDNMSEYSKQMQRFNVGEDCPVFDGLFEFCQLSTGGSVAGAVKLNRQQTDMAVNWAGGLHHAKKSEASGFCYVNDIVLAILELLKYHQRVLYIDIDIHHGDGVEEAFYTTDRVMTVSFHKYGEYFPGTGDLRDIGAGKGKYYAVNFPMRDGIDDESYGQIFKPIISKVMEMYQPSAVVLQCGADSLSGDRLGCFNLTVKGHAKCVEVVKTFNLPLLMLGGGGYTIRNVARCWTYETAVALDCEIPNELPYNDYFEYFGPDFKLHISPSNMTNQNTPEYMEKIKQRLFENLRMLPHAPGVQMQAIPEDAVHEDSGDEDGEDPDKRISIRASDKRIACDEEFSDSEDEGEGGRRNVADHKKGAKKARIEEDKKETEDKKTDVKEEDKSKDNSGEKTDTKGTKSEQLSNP
Sequence of HDAC1 (Q13547 whole entry): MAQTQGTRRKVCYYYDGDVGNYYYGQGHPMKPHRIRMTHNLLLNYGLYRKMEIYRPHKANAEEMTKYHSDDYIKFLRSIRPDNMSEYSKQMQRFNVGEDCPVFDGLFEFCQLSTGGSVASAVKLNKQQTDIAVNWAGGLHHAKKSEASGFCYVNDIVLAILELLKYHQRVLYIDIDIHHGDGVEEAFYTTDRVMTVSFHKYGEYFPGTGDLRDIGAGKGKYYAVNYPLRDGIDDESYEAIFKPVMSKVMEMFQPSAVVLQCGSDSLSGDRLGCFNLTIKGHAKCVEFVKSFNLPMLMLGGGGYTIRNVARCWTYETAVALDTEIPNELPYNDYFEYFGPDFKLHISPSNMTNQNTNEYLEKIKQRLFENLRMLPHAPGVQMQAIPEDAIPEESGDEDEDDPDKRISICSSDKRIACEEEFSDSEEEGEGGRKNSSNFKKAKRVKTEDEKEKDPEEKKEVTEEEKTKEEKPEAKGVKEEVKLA

At HDAC2, `O=C(NO)c1cccc(-c2ccccn2)n1` [3A, N-hydroxy[2,2'-bipyridine]-6-carboxamide] registered an IC50 of 890 nM.
As for `O=C(CCCCCCC(=O)Nc1cccc(-c2ccccn2)n1)NO` [3B, N^1-([2,2'-bipyridin]-6-yl)-N^8-hydroxyoctanediamide], the concentration for half-maximal inhibition (IC50) on HDAC2 came out at 1940 nM; against HDAC1, 440 nM.

A word on the IC50: it is the concentration at which inhibition is half-maximal. Read a low IC50 as higher potency.
